Assay results as given in patent publication US20200069664A1, “METHODS FOR TREATING INFECTION” (Salix Pharmaceuticals, Ltd, priority 2010, published 2020).
“Also recorded” adds a separate entry of the source. Where two headings read alike, the source gives them in different places.

How the values were obtained:
C difficile isolates [1] = assay: In vitro susceptibility of C difficile isolates (agar dilution for rifaximin, Etest for rifampin)
[2] = oral administration, healthy volunteers (Descombe et al. 1994); cited from earlier work
[3] = test system: enterotoxigenic E coli strains; assay: MIC against rifaximin by agar dilution, ETEC isolates; type: cell-based
From the text: (§1) Five enterotoxigenic E coli strains, 2 enteroaggregative E coli strains, and 1 S sonnei isolate were included in the study. The isolates had been identified previously from patients with TD acquired in Guadalajara, Mexico, during the summer of 2004 (5).

EAEC strain O42 = type: cell-based, E. coli
[4] = test system: enteroaggregative E coli strains; assay: MIC against rifaximin by agar dilution, EAEC isolates; type: cell-based; conditions: 2 EAEC isolates
From the text: as §1

S. sonnei = S. sonnei adherence and internalization in antibiotic-pretreated HeLa cells; type: cell-based; conditions: vs other treatment groups
[5] = test system: B. anthracis Sterne strain 7702; type: cell-based; conditions: pretreated A549 cells, vs other treatment groups
S sonnei isolate [6] = assay: MIC against rifaximin by agar dilution, S sonnei isolate; type: cell-based
From the text: as §1

EAEC isolates [7] = assay: Isolate viability after rifaximin exposure, EAEC; type: cell-based, E coli
EAEC [8] = assay: MIC50 previously established for EAEC; type: cell-based, E. coli; conditions: previously established in our laboratory
EAEC isolates [9] = assay: MMP-9 detection by gelatin zymography in EAEC isolates after rifaximin exposure; type: cell-based, E coli
Protocol: Expression of matrix metalloproteinase-9 (MMP-9) was analyzed using gelatin zymography in all viable EAEC and S. sonnei isolates growing on MacConkey agar. Isolates were suspended in 1 mL of 0.1 M phosphate buffered saline (pH 7.2) and centrifuged at 1000 g for 10 minutes at 4° C. The supernatant was subjected to gelatin zymography to detect MMP-9 activity using a modified Heussen and Dowdle protocol (9). In summary, the supernatant was diluted 1:2 in a sample buffer (125 mM Tris-HCl, pH 6.8, 20% glycerol, 4% sodium dodecyl sulfate, 0.02% bromphenol blue), and 20 μL was loaded on to a 10% SDS-PAGE gel containing 1 mg/mL gelatin. Prestained standard proteins were used as molecular weight markers. After electrophoresis, gels were rinsed with incubation buffer (2.5% triton X-100, 50 mM Tris-HCl, pH 7.4, 0.02% Brij 35, 10 mM CaCl2, 2 μM ZnCl2) for 1 hour at room temperature to remove SDS. Gels were then incubated overnight at 37° C. and subsequently stained with Coomassie brilliant blue R-250 (Thermo Fisher Scientific, Inc, Rockford, Ill.). […] Matrix metalloproteinase-9 was identified among all gelatinolytic proteins by size.

S sonnei isolate [10] = assay: Isolate viability after rifaximin exposure, S sonnei; type: cell-based
EAEC [11] = assay: Effect of dialyzed supernatants of treated HEp-2 cells on EAEC adherence; type: cell-based, E. coli; conditions: HEp-2 treated 24 h with 64 mg/ml (so in the source); chambered slides with or without HEp-2 cells, 3 h
Protocol: Supernatant dialysis. HEp-2 cells were cultured in T-175 flasks as described above. […] After 24 h, the medium was collected, loaded into regenerated cellulose dialysis tubing (cutoff, 6 to 8 kDa; Spectra/Por, Rancho Domiguez, Calif.), and dialyzed against 4 liters of PBS changed four times. Each dialysis step lasted at least 6 h and was carried out at 4° C. Dialyzed supernatants were either used immediately in adherence assays or stored at −20° C. until use.
The effect of supernatants on EAEC adherence was determined by mixing EAEC with the dialyzed media from the different antibiotic (or control) treatment groups and adding the bacteria to HEp-2 cells cultured in chambered slides or to chambered slides with no HEp-2 cells. Adherence was visualized microscopically as described above.

C difficile isolates [12] = conditions: 201 C difficile isolates, Canada, cited from earlier work
EAEC strains = assay: HCT-8 cell culture assay for IL-8 release after infection with rifaximin-exposed EAEC; type: cell-based, E coli
Protocol: The human intestinal adenocarcinoma cell line, HCT-8, was used to study inflammatory modulators as previously published (Huang, 2004 #15). Monolayers of HCT-8 cells (ATCC CCL-244; American Type Culture Collection, Rockville, Md.) were grown in 24-well culture plates (Corning Costar, Corning, N.Y.) in an RPMI 1640 medium (Sigma-Aldrich Co, St Louis, Mo.) supplemented with 100 U/mL of penicillin, 100 μg/mL of streptomycin, and 0.25 μg/mL of amphotericin B. They were maintained in a medium supplemented with 10% fetal bovine serum (HyClone, Logan, Utah) and grown until approximately 4×10^5 cells/well confluence.
HCT-8 cells were infected with EAEC strains recovered from MacConkey agar in triplicate at a 100:1 ratio in an antibiotic- and serum-free RPMI 1640 medium. Cells were incubated for 3 hours in a humidified chamber at 37° C. in an atmosphere containing 5% CO2, after which supernatants were collected. The supernatant concentration of IL-8 in each well was determined by using a commercially available enzyme-linked immunosorbent assay kit for human IL-8 (R&D Systems, Minneapolis, Minn.). All samples were tested twice, and the average value was reported.

[13] = resistance = MIC≥32 μg/mL, for rifaximin b194 says 'rifaximin alone'
[14] = 24 h pretreatment with 64 mg (sic; FIG. 2: 64 μg/ml)

Question: What does the source list for “(2S,16Z,18E,20S,21S ,22R, 23R,24R,255,265,275,28E)-5,6,21,23,25 Pentahydroxy-27-methoxy-2,4,11,16,20,22,24,26-octamethyl-2,7-(epoxypentadeca-(1,11,13) trienimino) benzofuro (4,5-e) pyrido(1,2,-a) benzimidazole-1,15(2H)-dione,25-acetate [Rifaximin]”?
Answer: MIC50 (C difficile isolates [1]; 359 C difficile isolates): <0.01 µg/mL; MIC90 (C difficile isolates [1]; 359 C difficile isolates): 0.25 µg/mL; MIC50 (C difficile isolates [1]; 359 C difficile isolates, listed as rifaximin): < 0.01 µg/mL; Isolates resistant to both rifampin and rifaximin, percent of 359 (C difficile isolates [1]; MIC≥32 μg/mL): 2%; Resistant isolates, number of 359 (C difficile isolates [1]; [13]): 11; Resistant isolates, percent of 359 (C difficile isolates [1]; [13]): 3%; Systemic absorption [2]: negligible; MIC ([3]; 2 ETEC isolates): 128 µg/mL; MIC ([3]; 3 ETEC isolates): 64 µg/mL; EAEC adherence to pretreated HEp-2 cells, quantified by CFU (EAEC strain O42): significantly lower; also recorded: reduced EAEC adherence; EAEC adherence to A549 cells (EAEC strain O42; [14]): significantly reduced; EAEC adherence to HCT-8 cells (EAEC strain O42; [14]): not significant; EAEC adherence to HEp-2 cells (EAEC strain O42; [14]): significantly reduced; EAEC adherence to HeLa cells (EAEC strain O42; [14]): significantly reduced; EAEC O42 adherence to pretreated HEp-2 cells (microscopy, stacked-brick pattern) (EAEC strain O42; HEp-2 cells pretreated 24 h, washed, EAEC 3 h, Wright-Giemsa staining): greatly reduced; EAEC bacterial counts in the supernatants (viability) (EAEC strain O42; after 3 h incubation with pretreated HEp-2 cells): No differences; also recorded: without affecting EAEC viability; MIC [4]: 64 µg/mL; S. sonnei attachment (S. sonnei): no effect; S. sonnei internalization (S. sonnei): no effect; Internalization of B. anthracis ([5]; gentamicin protection): significant reductions; Adherence of B. anthracis [5]: significant reductions; MIC (S sonnei isolate [6]): 16 µg/mL; EAEC viability (EAEC isolates [7]; rifaximin 8 mg/L for 24 hours): viable; EAEC viability (EAEC isolates [7]; rifaximin 8, 32, and 64 mg/L at 4, 8, and 18 hours): viable; EAEC viability (EAEC isolates [7]; rifaximin 32 and 64 mg/L for 24 hours): no viable isolates were recovered; also recorded: not viable; MIC50 for EAEC (EAEC [8]): 64 µg/mL; MMP-9 expression by EAEC isolates (EAEC isolates [9]; 18-hour time point (rifaximin 8 mg/L)): one EAEC isolate produced MMP-9, but the other isolate did not; MMP-9 expression by EAEC isolates (EAEC isolates [9]; rifaximin 8 mg/L for 4 and 8 hours): expressed MMP-9; MMP-9 expression by EAEC isolates (EAEC isolates [9]; rifaximin 8 mg/L for 24 hours): undetectable; MMP-9 expression by EAEC isolates (EAEC isolates [9]; rifaximin 32 or 64 mg/L for 4, 8, or 18 hours): undetectable; S sonnei viability (S sonnei isolate [10]; rifaximin 8 mg/L for 4, 8, 18, and 24 hours): viable; S sonnei viability (S sonnei isolate [10]; rifaximin 32 or 64 mg/L at any time point examined): not viable; Adherence of EAEC mixed with dialyzed supernatants from treated HEp-2 cells (EAEC [11]): adhered poorly; also recorded: affected EAEC adherence; MIC50 (C difficile isolates [12]; 1992 to 2007): 0.008 µg/mL; MIC90 (C difficile isolates [12]; 1992 to 2007): 0.015 µg/mL; Isolates with MIC values >2 μg/mL (C difficile isolates [12]): 4%; IL-8 production from HCT-8 cells elicited by rifaximin-exposed EAEC (EAEC strains; all other time points and rifaximin concentrations): either undetected following HCT-8 infection with EAEC strains, or EAEC strains were not viable; IL-8 production from HCT-8 cells elicited by rifaximin-exposed EAEC (EAEC strains; rifaximin 64 mg/L for 4 hours): caused IL-8 production; IL-8 production from HCT-8 cells elicited by rifaximin-exposed EAEC (EAEC strains; rifaximin 8 or 32 mg/L for 4 or 8 hours): elicited production of IL-8; IL-8 production from HCT-8 cells elicited by rifaximin-exposed EAEC (EAEC strains; viable isolates, rifaximin 8, 32, or 64 mg/L for 18 hours or 8 mg/L for 24 hours): did not elicit IL-8 production
